Values quoted from earlier work as cited in patent US20080119448A1, “Methods of treating an ocular allergy with low dose dexamethasone” (priority 2006, published 2008).

Conditions: dexamethasone at 0.1%

Structure (SMILES): C[C@@H]1C[C@H]2[C@@H]3CCC4=CC(=O)C=C[C@]4(C)[C@@]3(F)[C@@H](O)C[C@]2(C)[C@@]1(O)C(=O)CO [dexamethasone]
- effect on intraocular pressure: increase in intraocular pressure
